According to patent US20230085307A1, “PYRIDAZINONE COMPOUND AND HERBICIDE” (NISSAN CHEMICAL CORPORATION, priority 2019, published 2023):

Each compound was assayed on oval-leafed pondweed (assay: Test Example 1: herbicidal activity, application before weed generation under submerged conditions (Table 16, symbol C)). Conditions: amount of applied herbicide 320 g/ha.
Format: in vivo, oval-leafed pondweed (Monochoria vaginalis)
In short: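 Alluvial soil was flooded to 4 cm depth, weed seeds were sown mixed and 2.5-leaf rice seedlings were transplanted. On sowing day, the compound's emulsion, diluted in water to a set dose, was applied to the water surface. Plants grew at 25–30 °C and were scored 0–5 after three weeks.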
For `COc1ccccc1-c1sc2cc(F)ccc2c1-c1c(OC(=O)c2ccco2)c(C)nn(C)c1=O` [3-023], the “Herbicidal effect, C: oval-leafed pondweed” value was 4 (Herbicidal rate of 70% or more and less than 90%).
In the case of `COc1ccccc1-c1sc2cc(F)ccc2c1-c1c(OS(=O)(=O)c2ccc(C)cc2)c(C)nn(C)c1=O` [3-027], the “Herbicidal effect, C: oval-leafed pondweed” value is reported as 5 (Herbicidal rate of 90% or more (almost completely withered)).

The compounds below were run on Japanese bulrush (assay: Test Example 2: herbicidal activity, application during weed generation under submerged conditions (Table 17, symbol B)). Conditions: AAH 320 g/ha; application during weed generation, submerged conditions.
Format: in vivo, Japanese bulrush (Schoenoplectus juncoides)
In short: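 Mixed weed seedlings in alluvial soil under a 4 cm water layer, greenhouse-grown at 25–30° C. Compound given as a diluted emulsion into the floodwater at the 1–2 leaf stage; response graded after three weeks.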
For `COc1ccccc1-c1sc2cc(F)ccc2c1-c1c(OC(=O)c2ccco2)c(C)nn(C)c1=O` [3-023], the “herbicidal effect rating, B: Japanese bulrush” value was 2 (Herbicidal rate of 20% or more and less than 40%).
`COc1ccccc1-c1sc2cc(F)ccc2c1-c1c(OS(=O)(=O)c2ccc(C)cc2)c(C)nn(C)c1=O` [3-027] was tested, and the “herbicidal effect rating, B: Japanese bulrush” value was 2 (Herbicidal rate of 20% or more and less than 40%).

The compounds below were run on Chinese sprangletop (assay: Test Example 3: herbicidal effect by foliage application, Wagner pot (Table 18, symbol D)). Conditions: amount of applied herbicide 320 g/ha.
Format: in vivo, chinese sprangletop (Leptochloa chinensis)
In short: (§1)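 Plants were sown in alluvial soil held under 0.1–0.5 cm standing water and grown 14 days in a greenhouse at 25–30 °C. An emulsifiable formulation, water-diluted to the set dose, was then sprayed onto the foliage, and effects were scored three weeks later using previously defined criteria.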
In the case of `COc1ccccc1-c1sc2cc(F)ccc2c1-c1c(OC(=O)c2ccco2)c(C)nn(C)c1=O` [3-023], the “herbicidal effect on D: Chinese sprangletop” value is reported as 3 (Herbicidal rate of 40% or more and less than 70%).
In the case of `COc1ccccc1-c1sc2cc(F)ccc2c1-c1c(OS(=O)(=O)c2ccc(C)cc2)c(C)nn(C)c1=O` [3-027], the “herbicidal effect on D: Chinese sprangletop” value is reported as 3 (Herbicidal rate of 40% or more and less than 70%).

Each compound was assayed on rice flat sedge (assay: Test Example 3: herbicidal effect by foliage application, Wagner pot (Table 18, symbol E)). Conditions: amount of applied herbicide 320 g/ha.
Format: in vivo, rice flat sedge (Cyperus iria)
In short: as §1
For `COc1ccccc1-c1sc2cc(F)ccc2c1-c1c(OC(=O)c2ccco2)c(C)nn(C)c1=O` [3-023], the “herbicidal effect on E: rice flat sedge” value was 5 (Herbicidal rate of 90% or more (almost completely withered)).
For `COc1ccccc1-c1sc2cc(F)ccc2c1-c1c(OS(=O)(=O)c2ccc(C)cc2)c(C)nn(C)c1=O` [3-027], the “herbicidal effect on E: rice flat sedge” value was 5 (Herbicidal rate of 90% or more (almost completely withered)).

Each compound was assayed on green foxtail (assay: Test Example 4: herbicidal effect by soil treatment (Table 19, symbol G)). Conditions: amount of applied herbicide 320 g/ha.
Format: in vivo, green foxtail (Setaria viridis)
In short: (§2)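 Step 1: sow seeds in sterilized diluvial soil, cover ~1.5 cm. Step 2: spray diluted emulsion onto soil surface at predetermined rate. Step 3: greenhouse, 25–30° C, three weeks. Step 4: grade effect on each plant by earlier criteria.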
For `COc1ccccc1-c1sc2cc(F)ccc2c1-c1c(OC(=O)c2ccco2)c(C)nn(C)c1=O` [3-023], the “herbicidal effect, G: green foxtail” value was 4 (Herbicidal rate of 70% or more and less than 90%).
For `COc1ccccc1-c1sc2cc(F)ccc2c1-c1c(OS(=O)(=O)c2ccc(C)cc2)c(C)nn(C)c1=O` [3-027], the “G: green foxtail, herbicidal effect grade” value was 0 (Herbicidal rate of 5% or less (almost no effect)).

What follows are compounds tested on wild oat (assay: Test Example 4: herbicidal effect by soil treatment (Table 19, symbol I)). Conditions: amount of applied herbicide 320 g/ha.
Format: in vivo, wild oat (Avena fatua)
In short: as §2
In the case of `COc1ccccc1-c1sc2cc(F)ccc2c1-c1c(OC(=O)c2ccco2)c(C)nn(C)c1=O` [3-023], the “herbicidal effect, I: wild oat” value is reported as 0 (Herbicidal rate of 5% or less (almost no effect)).
With `COc1ccccc1-c1sc2cc(F)ccc2c1-c1c(OS(=O)(=O)c2ccc(C)cc2)c(C)nn(C)c1=O` [3-027] the “I: wild oat, herbicidal effect grade” value was 0 (Herbicidal rate of 5% or less (almost no effect)).

What follows are compounds tested on Italian ryegrass (assay: Test Example 4: herbicidal effect by soil treatment (Table 19, symbol K)). Conditions: amount of applied herbicide 320 g/ha.
Format: in vivo, Italian ryegrass (Lolium multiflorum)
In short: as §2
With `COc1ccccc1-c1sc2cc(F)ccc2c1-c1c(OC(=O)c2ccco2)c(C)nn(C)c1=O` [3-023] the “herbicidal effect, K: Italian ryegrass” value was 5 (Herbicidal rate of 90% or more (almost completely withered)).
`COc1ccccc1-c1sc2cc(F)ccc2c1-c1c(OS(=O)(=O)c2ccc(C)cc2)c(C)nn(C)c1=O` [3-027] was tested, and the “K: Italian ryegrass, herbicidal effect grade” value was 0 (Herbicidal rate of 5% or less (almost no effect)).

These compounds were tested on windgrass (assay: Test Example 4: herbicidal effect by soil treatment (Table 19, symbol L)). Conditions: amount of applied herbicide 320 g/ha.
Format: in vivo, windgrass (Apera spica-venti)
In short: as §2
With `COc1ccccc1-c1sc2cc(F)ccc2c1-c1c(OC(=O)c2ccco2)c(C)nn(C)c1=O` [3-023] the “herbicidal effect, L: windgrass” value was 3 (Herbicidal rate of 40% or more and less than 70%).
`COc1ccccc1-c1sc2cc(F)ccc2c1-c1c(OS(=O)(=O)c2ccc(C)cc2)c(C)nn(C)c1=O` [3-027] was tested, and the “L: windgrass, herbicidal effect grade” value was 0 (Herbicidal rate of 5% or less (almost no effect)).

What follows are compounds tested on velvetleaf (assay: Test Example 4: herbicidal effect by soil treatment (Table 19, symbol M)). Conditions: amount of applied herbicide 320 g/ha.
Format: in vivo, velvetleaf (Abutilon theophrasti)
In short: as §2
With `COc1ccccc1-c1sc2cc(F)ccc2c1-c1c(OC(=O)c2ccco2)c(C)nn(C)c1=O` [3-023] the “herbicidal effect, M: velvetleaf” value was 0 (Herbicidal rate of 5% or less (almost no effect)).
For `COc1ccccc1-c1sc2cc(F)ccc2c1-c1c(OS(=O)(=O)c2ccc(C)cc2)c(C)nn(C)c1=O` [3-027], the “M: velvetleaf, herbicidal effect grade” value was 0 (Herbicidal rate of 5% or less (almost no effect)).

The compounds below were run on redroot pigweed (assay: Test Example 4: herbicidal effect by soil treatment (Table 19, symbol N)). Conditions: amount of applied herbicide 320 g/ha.
Format: in vivo, redroot pigweed (Amaranthus retroflexus)
In short: as §2
With `COc1ccccc1-c1sc2cc(F)ccc2c1-c1c(OC(=O)c2ccco2)c(C)nn(C)c1=O` [3-023] the “herbicidal effect, N: redroot pigweed” value was 5 (Herbicidal rate of 90% or more (almost completely withered)).
`COc1ccccc1-c1sc2cc(F)ccc2c1-c1c(OS(=O)(=O)c2ccc(C)cc2)c(C)nn(C)c1=O` [3-027] was tested, and the “N: redroot pigweed, herbicidal effect grade” value was 0 (Herbicidal rate of 5% or less (almost no effect)).

The compounds below were run on lambsquarters (assay: Test Example 4: herbicidal effect by soil treatment (Table 19, symbol O)). Conditions: amount of applied herbicide 320 g/ha.
Format: in vivo, lambsquarters (Chenopodium album)
In short: as §2
For `COc1ccccc1-c1sc2cc(F)ccc2c1-c1c(OC(=O)c2ccco2)c(C)nn(C)c1=O` [3-023], the “herbicidal effect, O: lambsquarters” value was 2 (Herbicidal rate of 20% or more and less than 40%).
With `COc1ccccc1-c1sc2cc(F)ccc2c1-c1c(OS(=O)(=O)c2ccc(C)cc2)c(C)nn(C)c1=O` [3-027] the “O: lambsquarters, herbicidal effect grade” value was 0 (Herbicidal rate of 5% or less (almost no effect)).

The compounds below were run on persian speedwell (assay: Test Example 4: herbicidal effect by soil treatment (Table 19, symbol R)). Conditions: amount of applied herbicide 320 g/ha.
Format: in vivo, Persian speedwell (Veronica persica)
In short: as §2
In the case of `COc1ccccc1-c1sc2cc(F)ccc2c1-c1c(OC(=O)c2ccco2)c(C)nn(C)c1=O` [3-023], the “herbicidal effect, R: persian speedwell” value is reported as 4 (Herbicidal rate of 70% or more and less than 90%).
In the case of `COc1ccccc1-c1sc2cc(F)ccc2c1-c1c(OS(=O)(=O)c2ccc(C)cc2)c(C)nn(C)c1=O` [3-027], the “R: persian speedwell, herbicidal effect grade” value is reported as 0 (Herbicidal rate of 5% or less (almost no effect)).

What follows are compounds tested on barnyard grass (assay: Test Example 5: herbicidal effect by foliage application, plastic box (Table 20, symbol H)). Conditions: foliage application, 320 g/ha, three weeks after application.
Format: in vivo, barnyard grass (Echinochloa crus-galli)
In short: (§3)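 Foliar spray test: emulsion formulation diluted in water to a set application rate, sprayed onto 14-day-old plants raised in diluvial soil at 25° C to 30° C under glass. Both herbicidal effect and crop effect rated visually three weeks later.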
In the case of `COc1ccccc1-c1sc2cc(F)ccc2c1-c1c(OC(=O)c2ccco2)c(C)nn(C)c1=O` [3-023], the “H: barnyard grass, herbicidal effect grade” value is reported as 5 (Herbicidal rate of 90% or more (almost completely withered)).
With `COc1ccccc1-c1sc2cc(F)ccc2c1-c1c(OS(=O)(=O)c2ccc(C)cc2)c(C)nn(C)c1=O` [3-027] the “H: barnyard grass, herbicidal effect grade” value was 5 (Herbicidal rate of 90% or more (almost completely withered)).

What follows are compounds tested on blackgrass (assay: Test Example 5: herbicidal effect by foliage application, plastic box (Table 20, symbol J)). Conditions: foliage application, 320 g/ha, three weeks after application.
Format: in vivo, blackgrass (Alopecurus myosuroides)
In short: as §3
`COc1ccccc1-c1sc2cc(F)ccc2c1-c1c(OC(=O)c2ccco2)c(C)nn(C)c1=O` [3-023] was tested, and the “J: blackgrass, herbicidal effect grade” value was 5 (Herbicidal rate of 90% or more (almost completely withered)).
`COc1ccccc1-c1sc2cc(F)ccc2c1-c1c(OS(=O)(=O)c2ccc(C)cc2)c(C)nn(C)c1=O` [3-027] was tested, and the “J: blackgrass, herbicidal effect grade” value was 4 (Herbicidal rate of 70% or more and less than 90%).

What follows are compounds tested on Italian ryegrass (assay: Test Example 5: herbicidal effect by foliage application, plastic box (Table 20, symbol K)). Conditions: foliage application, 320 g/ha, three weeks after application.
Format: in vivo, Italian ryegrass (Lolium multiflorum)
In short: as §3
With `COc1ccccc1-c1sc2cc(F)ccc2c1-c1c(OC(=O)c2ccco2)c(C)nn(C)c1=O` [3-023] the “K: Italian ryegrass, herbicidal effect grade” value was 5 (Herbicidal rate of 90% or more (almost completely withered)).
In the case of `COc1ccccc1-c1sc2cc(F)ccc2c1-c1c(OS(=O)(=O)c2ccc(C)cc2)c(C)nn(C)c1=O` [3-027], the “K: Italian ryegrass, herbicidal effect grade” value is reported as 3 (Herbicidal rate of 40% or more and less than 70%).

Each compound was assayed on velvetleaf (assay: Test Example 5: herbicidal effect by foliage application, plastic box (Table 20, symbol M)). Conditions: foliage application, 320 g/ha, three weeks after application.
Format: in vivo, velvetleaf (Abutilon theophrasti)
In short: as §3
For `COc1ccccc1-c1sc2cc(F)ccc2c1-c1c(OC(=O)c2ccco2)c(C)nn(C)c1=O` [3-023], the “M: velvetleaf, herbicidal effect grade” value was 5 (Herbicidal rate of 90% or more (almost completely withered)).
With `COc1ccccc1-c1sc2cc(F)ccc2c1-c1c(OS(=O)(=O)c2ccc(C)cc2)c(C)nn(C)c1=O` [3-027] the “M: velvetleaf, herbicidal effect grade” value was 5 (Herbicidal rate of 90% or more (almost completely withered)).

These compounds were tested on chickweed (assay: Test Example 5: herbicidal effect by foliage application, plastic box (Table 20, symbol P)). Conditions: foliage application, 320 g/ha, three weeks after application.
Format: in vivo, common chickweed (Stellaria media)
In short: as §3
For `COc1ccccc1-c1sc2cc(F)ccc2c1-c1c(OC(=O)c2ccco2)c(C)nn(C)c1=O` [3-023], the “P: chickweed, herbicidal effect grade” value was 5 (Herbicidal rate of 90% or more (almost completely withered)).
For `COc1ccccc1-c1sc2cc(F)ccc2c1-c1c(OS(=O)(=O)c2ccc(C)cc2)c(C)nn(C)c1=O` [3-027], the “P: chickweed, herbicidal effect grade” value was 3 (Herbicidal rate of 40% or more and less than 70%).
